From US6841661B2, “Glycopeptide antibacterial compounds, compositions containing same and methods of using same” (Princeton Univerisity, priority 1999, dated 2005)

What was measured:
[1] = system: CL 4931, CL 5053, CL 5242 and CL 4877; type: cell-based, E. faecium, E. faecalis; set-up: unit not given here; details: mean of CL4931, CL5053, CL5242, CL4877; unit not given
Method in brief: (§1)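 NCCLS M7-A4-based broth microdilution with twofold serial dilutions, incubated at 35° C; medium BHI for enterococci and VISA/MRSA, cation-adjusted Mueller-Hinton for E. coli. Inoculum about 1-5×10^6 CFU/ml (enterococci) or 3-7×10^5 CFU/ml (others); MIC is lowest concentration with no visible growth, read at 18-20 hr for E. coli, 22-24 hr otherwise.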

[2] = system: E. faecium CL 5053 (VanA); assay: microbe, parasite or virus in culture; type: cell-based; set-up: CL5053 (in vitro testing): unit not given here; details: Tables 7 and 8; unit not given
Method in brief: (§2)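 Twofold broth microdilution per modified NCCLS M7-A4, 35 °C. Enterococci and VISA/MRSA in BHI (VISA/MRSA precultured in TSB + 10% HS), E. coli in MH II. Inocula ~1-5×10^6 CFU/ml for enterococci, ~3-7×10^5 CFU/ml otherwise. MIC is the lowest concentration with no visible growth, read at 18-20 hr (E. coli) or 22-24 hr.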

[3] = system: E. faecalis CL 4877 (VanB); assay: microbe, parasite or virus in culture; type: cell-based; set-up: CL4877 (in vitro testing): unit not given here; details: Tables 7 and 8; unit not given
Method in brief: as §1

[4] = system: E. faecium CL 5242 (VanA); assay: microbe, parasite or virus in culture; type: cell-based; set-up: CL5242 (in vitro testing): unit not given here; details: Tables 7 and 8; unit not given
Method in brief: as §2

[5] = system: E. faecium CL 4931 (VanA); assay: microbe, parasite or virus in culture; type: cell-based; set-up: CL4931 (in vitro testing): unit not given here; details: Tables 7 and 8; unit not given
Method in brief: as §2

| Compound | Mean [1] | CL5053 (in vitro testing) [2] | CL4877 (in vitro testing) [3] | CL5242 (in vitro testing) [4] | CL4931 (in vitro testing) [5] |
| --- | --- | --- | --- | --- | --- |
| CNC(CC(C)C)C(=O)NC1C(=O)NC(CC(N)=O)C(=O)NC2C(=O)NC3C(=O)NC(C(=O)NC(C(=O)O)c4cc(O)cc(O)c4-c4cc3ccc4O)C(O)c3ccc(c(Cl)c3)Oc3cc2cc(c3OC2OC(CN3CCC(N(C)C)CC3)C(O)C(O)C2OC2CC(C)(NCc3ccc(OCc4ccc(Cl)c(Cl)c4)cc3)C(O)C(C)O2)Oc2ccc(cc2Cl)C1O (stereo not drawn) [Compound 170] | 22.0 | 32 | 32 | 8 | 16 |
| CNC(CC(C)C)C(=O)NC1C(=O)NC(CC(N)=O)C(=O)NC2C(=O)NC3C(=O)NC(C(=O)NC(C(=O)O)c4cc(O)cc(O)c4-c4cc3ccc4O)C(O)c3ccc(c(Cl)c3)Oc3cc2cc(c3OC2OC(CN)C(O)C(O)C2OC2CC(C)(NCc3ccc(OCc4ccc(Cl)cc4)cc3)C(O)C(C)O2)Oc2ccc(cc2Cl)C1O (stereo not drawn) [Compound 171] | 7.25 | 8 | 16 | 1 | 4 |
| CNC(CC(C)C)C(=O)NC1C(=O)NC(CC(N)=O)C(=O)NC2C(=O)NC3C(=O)NC(C(=O)NC(C(=O)O)c4cc(O)cc(O)c4-c4cc3ccc4O)C(O)c3ccc(c(Cl)c3)Oc3cc2cc(c3OC2OC(CN)C(O)C(O)C2OC2CC(C)(NCc3ccc(OCc4cccc(Cl)c4)cc3)C(O)C(C)O2)Oc2ccc(cc2Cl)C1O (stereo not drawn) [Compound 172] | 12.5 | 16 | >16 | 2 | 16 |
| CNC(CC(C)C)C(=O)NC1C(=O)NC(CC(N)=O)C(=O)NC2C(=O)NC3C(=O)NC(C(=O)NC(C(=O)O)c4cc(O)cc(O)c4-c4cc3ccc4O)C(O)c3ccc(c(Cl)c3)Oc3cc2cc(c3OC2OC(CN)C(O)C(O)C2OC2CC(C)(NCc3ccc(OCc4ccc(Cl)cc4Cl)cc3)C(O)C(C)O2)Oc2ccc(cc2Cl)C1O (stereo not drawn) [Compound 173] | 4.75 | 8 | 2 | 1 | 8 |
| CNC(CC(C)C)C(=O)NC1C(=O)NC(CC(N)=O)C(=O)NC2C(=O)NC3C(=O)NC(C(=O)NC(C(=O)O)c4cc(O)cc(O)c4-c4cc3ccc4O)C(O)c3ccc(c(Cl)c3)Oc3cc2cc(c3OC2OC(CN)C(O)C(O)C2OC2CC(C)(NCc3ccc(OCc4cc(Cl)ccc4Cl)cc3)C(O)C(C)O2)Oc2ccc(cc2Cl)C1O (stereo not drawn) [Compound 174] | 14 | 16 | 16 | 8 | 16 |
| CNC(CC(C)C)C(=O)NC1C(=O)NC(CC(N)=O)C(=O)NC2C(=O)NC3C(=O)NC(C(=O)NC(C(=O)O)c4cc(O)cc(O)c4-c4cc3ccc4O)C(O)c3ccc(c(Cl)c3)Oc3cc2cc(c3OC2OC(CN)C(O)C(O)C2OC2CC(C)(NCc3ccc(OCc4cc(Cl)cc(Cl)c4)cc3)C(O)C(C)O2)Oc2ccc(cc2Cl)C1O (stereo not drawn) [Compound 175] | 3 | 4 | 2 | 2 | 4 |
| CNC(CC(C)C)C(=O)NC1C(=O)NC(CC(N)=O)C(=O)NC2C(=O)NC3C(=O)NC(C(=O)NC(C(=O)O)c4cc(O)cc(O)c4-c4cc3ccc4O)C(O)c3ccc(c(Cl)c3)Oc3cc2cc(c3OC2OC(CN)C(O)C(O)C2OC2CC(C)(NCc3ccc(OCc4c(Cl)cccc4Cl)cc3)C(O)C(C)O2)Oc2ccc(cc2Cl)C1O (stereo not drawn) [Compound 176] | 13 | 16 | >16 | 4 | 16 |
| CNC(CC(C)C)C(=O)NC1C(=O)NC(CC(N)=O)C(=O)NC2C(=O)NC3C(=O)NC(C(=O)NC(C(=O)O)c4cc(O)cc(O)c4-c4cc3ccc4O)C(O)c3ccc(c(Cl)c3)Oc3cc2cc(c3OC2OC(CN)C(O)C(O)C2OC2CC(C)(NCc3ccc(OCc4ccc(C(=O)OC)cc4)cc3)C(O)C(C)O2)Oc2ccc(cc2Cl)C1O (stereo not drawn) [Compound 177] | 13 | >16 | >16 | 4 | >16 |
| CNC(CC(C)C)C(=O)NC1C(=O)NC(CC(N)=O)C(=O)NC2C(=O)NC3C(=O)NC(C(=O)NC(C(=O)O)c4cc(O)cc(O)c4-c4cc3ccc4O)C(O)c3ccc(c(Cl)c3)Oc3cc2cc(c3OC2OC(CN)C(O)C(O)C2OC2CC(C)(NCc3ccc(OCc4ccc([N+](=O)[O-])cc4)cc3)C(O)C(C)O2)Oc2ccc(cc2Cl)C1O (stereo not drawn) [Compound 178] | 27 | >32 | >32 | 8 | 32 |
| CNC(CC(C)C)C(=O)NC1C(=O)NC(CC(N)=O)C(=O)NC2C(=O)NC3C(=O)NC(C(=O)NC(C(=O)O)c4cc(O)cc(O)c4-c4cc3ccc4O)C(O)c3ccc(c(Cl)c3)Oc3cc2cc(c3OC2OC(CN)C(O)C(O)C2OC2CC(C)(NCc3ccc(OCc4ccc(C(F)(F)F)cc4)cc3)C(O)C(C)O2)Oc2ccc(cc2Cl)C1O (stereo not drawn) [Compound 179] | 3.25 | 8 | 4 | 1 | 8 |
| CNC(CC(C)C)C(=O)NC1C(=O)NC(CC(N)=O)C(=O)NC2C(=O)NC3C(=O)NC(C(=O)NC(C(=O)O)c4cc(O)cc(O)c4-c4cc3ccc4O)C(O)c3ccc(c(Cl)c3)Oc3cc2cc(c3OC2OC(CN)C(O)C(O)C2OC2CC(C)(NCc3ccc(OCc4ccccc4C(F)(F)F)cc3)C(O)C(C)O2)Oc2ccc(cc2Cl)C1O (stereo not drawn) [Compound 180] | 12.5 | 16 | 16 | 2 | 16 |
| CNC(CC(C)C)C(=O)NC1C(=O)NC(CC(N)=O)C(=O)NC2C(=O)NC3C(=O)NC(C(=O)NC(C(=O)O)c4cc(O)cc(O)c4-c4cc3ccc4O)C(O)c3ccc(c(Cl)c3)Oc3cc2cc(c3OC2OC(CN)C(O)C(O)C2OC2CC(C)(NCc3ccc(OCc4ccc(F)cc4Cl)cc3)C(O)C(C)O2)Oc2ccc(cc2Cl)C1O (stereo not drawn) [Compound 181] | 21 | 32 | 32 | 4 | 16 |
| CNC(CC(C)C)C(=O)NC1C(=O)NC(CC(N)=O)C(=O)NC2C(=O)NC3C(=O)NC(C(=O)NC(C(=O)O)c4cc(O)cc(O)c4-c4cc3ccc4O)C(O)c3ccc(c(Cl)c3)Oc3cc2cc(c3OC2OC(CN)C(O)C(O)C2OC2CC(C)(NCc3ccc(OCc4ccccc4Cl)cc3)C(O)C(C)O2)Oc2ccc(cc2Cl)C1O (stereo not drawn) [Compound 182] | 13 | >16 | >16 | 4 | >16 |
| CNC(CC(C)C)C(=O)NC1C(=O)NC(CC(N)=O)C(=O)NC2C(=O)NC3C(=O)NC(C(=O)NC(C(=O)O)c4cc(O)cc(O)c4-c4cc3ccc4O)C(O)c3ccc(c(Cl)c3)Oc3cc2cc(c3OC2OC(CN)C(O)C(O)C2OC2CC(C)(NCc3ccc(OCc4ccc(Cl)c(Cl)c4)cc3Cl)C(O)C(C)O2)Oc2ccc(cc2Cl)C1O (stereo not drawn) [Compound 183] | 4 | 4 | 2 | 2 | 8 |
| CNC(CC(C)C)C(=O)NC1C(=O)NC(CC(N)=O)C(=O)NC2C(=O)NC3C(=O)NC(C(=O)NC(C(=O)O)c4cc(O)cc(O)c4-c4cc3ccc4O)C(O)c3ccc(c(Cl)c3)Oc3cc2cc(c3OC2OC(CN)C(O)C(O)C2OC2CC(C)(NCc3ccc(OCc4ccc(Cl)c(Cl)c4)c(OC)c3)C(O)C(C)O2)Oc2ccc(cc2Cl)C1O (stereo not drawn) [Compound 184] | 4.5 | 4 | 8 | 2 | 4 |
| CNC(CC(C)C)C(=O)NC1C(=O)NC(CC(N)=O)C(=O)NC2C(=O)NC3C(=O)NC(C(=O)NC(C(=O)O)c4cc(O)cc(O)c4-c4cc3ccc4O)C(O)c3ccc(c(Cl)c3)Oc3cc2cc(c3OC2OC(CN)C(O)C(O)C2OC2CC(C)(NCc3ccc(OCc4ccc(Cl)c(Cl)c4)cc3OC)C(O)C(C)O2)Oc2ccc(cc2Cl)C1O (stereo not drawn) [Compound 185] | 8 | 16 | 4 | 4 | 8 |
| CNC(CC(C)C)C(=O)NC1C(=O)NC(CC(N)=O)C(=O)NC2C(=O)NC3C(=O)NC(C(=O)NC(C(=O)O)c4cc(O)cc(O)c4-c4cc3ccc4O)C(O)c3ccc(c(Cl)c3)Oc3cc2cc(c3OC2OC(CN)C(O)C(O)C2OC2CC(C)(NCc3ccc(Oc4ccc(Cl)c(Cl)c4)cc3)C(O)C(C)O2)Oc2ccc(cc2Cl)C1O (stereo not drawn) [Compound 186] | 6.5 | 8 | 8 | 2 | 8 |
| CNC(CC(C)C)C(=O)NC1C(=O)NC(CC(N)=O)C(=O)NC2C(=O)NC3C(=O)NC(C(=O)NC(C(=O)O)c4cc(O)cc(O)c4-c4cc3ccc4O)C(O)c3ccc(c(Cl)c3)Oc3cc2cc(c3OC2OC(CN)C(O)C(O)C2OC2CC(C)(NCc3ccc(C(=O)Oc4ccc(Cl)cc4)cc3)C(O)C(C)O2)Oc2ccc(cc2Cl)C1O (stereo not drawn) [Compound 187] | 17 | 16 | 32 | 4 | 16 |
